As usually defined, the IC50 is the midpoint of a concentration-inhibition curve.

For one molecule, IC50 results are on record in ChEMBL document CHEMBL3639070, “19-nor-steroid derivatives with a 15Œ±,16Œ±-methylene group and a saturated 17,17-spirolactone ring, use thereof, and medicaments containing said derivatives” (2015).

For the test, the target named is T1, Progesterone receptor (Homo sapiens, UniProt P06401).
T1 sequence (P06401 whole entry): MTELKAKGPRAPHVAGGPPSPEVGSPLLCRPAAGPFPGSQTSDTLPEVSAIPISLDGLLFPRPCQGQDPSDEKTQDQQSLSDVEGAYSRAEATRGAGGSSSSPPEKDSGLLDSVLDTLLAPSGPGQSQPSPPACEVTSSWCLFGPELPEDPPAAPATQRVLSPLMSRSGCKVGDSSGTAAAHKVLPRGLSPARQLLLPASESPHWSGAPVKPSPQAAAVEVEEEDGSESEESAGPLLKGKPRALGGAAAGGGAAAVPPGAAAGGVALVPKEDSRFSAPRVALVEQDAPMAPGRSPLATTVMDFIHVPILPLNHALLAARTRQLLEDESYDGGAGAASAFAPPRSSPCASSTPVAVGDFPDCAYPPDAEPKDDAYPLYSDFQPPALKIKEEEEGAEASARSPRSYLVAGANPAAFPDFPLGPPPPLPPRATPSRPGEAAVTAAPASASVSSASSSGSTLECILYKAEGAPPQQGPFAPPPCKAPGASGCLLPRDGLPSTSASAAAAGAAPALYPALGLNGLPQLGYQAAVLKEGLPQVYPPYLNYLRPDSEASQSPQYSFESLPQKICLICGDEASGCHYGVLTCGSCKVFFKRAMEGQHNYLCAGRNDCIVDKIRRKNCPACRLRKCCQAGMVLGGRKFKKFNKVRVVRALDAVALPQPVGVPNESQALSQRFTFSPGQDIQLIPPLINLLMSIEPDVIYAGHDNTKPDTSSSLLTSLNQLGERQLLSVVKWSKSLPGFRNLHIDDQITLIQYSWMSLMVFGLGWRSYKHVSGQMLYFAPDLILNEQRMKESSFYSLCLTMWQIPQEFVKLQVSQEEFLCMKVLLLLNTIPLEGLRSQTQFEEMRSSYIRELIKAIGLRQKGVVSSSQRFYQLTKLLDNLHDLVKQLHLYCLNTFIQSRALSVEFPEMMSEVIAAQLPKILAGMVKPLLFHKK
As to the kind of experiment: Binding Assay: Using cytosol from progesterone receptor-expressing insect cells (Hi5), competitive binding to the progesterone receptor was determined from the ability to displace 3H-progesterone as reference substance from the receptor.

`C[C@]12CCC3C4CCC(=O)C=C4[C@@H]4C[C@@H]4C3C1C1CC1[C@@]21CCC(=O)O1` (stereo partly specified) gave an IC50 of 16 nM.
